In patent publication US20230339937A1, “CONDENSED RING COMPOUNDS THAT INHIBIT H-PGDS” (SATO PHARMACEUTICAL CO., LTD., priority 2020, published 2023) one finds IC50 data, which are given here for 39 molecules.

The term IC50 denotes the midpoint of a concentration-inhibition curve.

This assay concerns the target T1, Recombinant human H-PGDS (Homo sapiens, UniProt O60760).
T1 construct: made in house; host or cells: E. coli
The assay is described as follows: H-PGDS inhibitory activity (prostaglandin D2 production from prostaglandin H2, measured by LC-MS/MS). It counts as biochemical. To be noted: recombinant human H-PGDS 1.0 nM expressed in E. coli; prostaglandin H2 25 μM; preincubated 15 minutes on ice, reacted on ice for 1 minute; concentration that inhibits prostaglandin D2 production by 50%. Summed up: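 Recombinant human H-PGDS (E. coli-expressed, 1.0 nM final) preincubated with compound 15 min on ice in 20 mM Tris-HCl pH 8.0, 2 mM MgCl2, 2 mM GSH, 0.5 mg/mL γ-globulin. Reaction with 25 µM PGH2 run 1 min on ice, stopped with FeCl2/citric acid, PGD2 quantified by LC-MS/MS. Activity expressed as % of DMSO control after subtracting non-enzymatic PGD2.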

T1 sequence (O60760 whole entry): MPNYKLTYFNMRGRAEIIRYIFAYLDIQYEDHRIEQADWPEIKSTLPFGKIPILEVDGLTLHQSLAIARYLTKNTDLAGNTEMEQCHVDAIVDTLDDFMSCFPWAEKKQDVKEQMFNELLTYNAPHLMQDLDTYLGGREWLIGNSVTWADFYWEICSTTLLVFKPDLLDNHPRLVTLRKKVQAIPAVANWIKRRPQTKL

Take `CCO[C@H]1CC[C@H](NC(=O)c2ccc(-c3nccc4occc34)cc2)CC1` [Example 287, N-(trans-4-ethoxycyclohexyl)-4-(furo[3,2-c]pyridin-4-yl)benzamide]: the IC50 was determined as 0.87 nM. With `Cc1cc2occc2c(-c2ccc(C(=O)N[C@H]3CC[C@H](C(C)(C)O)CC3)cc2F)n1` [Example 321, 3-fluoro-N-[trans-4-(2-hydroxypropan-2-yl)cyclohexyl]-4-(6-methylfuro[3,2-c]pyridin-4-yl)benzamide], the IC50 was 5.5 nM.

Regarding `O=C(NC1CCN(c2ncc(Br)cn2)CC1)c1ccc(-c2nccc3occc23)cc1` [Example 154, N-[1-(5-bromopyrimidin-2-yl)piperidin-4-yl]-4-(furo[3,2-c]pyridin-4-yl)benzamide], the IC50 came to 6.3 nM. Take `O=C(N[C@H]1CCCC[C@@H]1O)c1ccc(-c2nccc3occc23)cc1` (relative stereo) [Example 274, 4-(furo[3,2-c]pyridin-4-yl)-N-(trans-2-hydroxycyclohexyl)benzamide]: the half-maximal inhibitory concentration (IC50) came to 13 nM. For the molecule `NS(=O)(=O)c1ccc(NC(=O)c2ccc(-c3nccc4occc34)cc2)cc1` [Example 102, 4-(furo[3,2-c]pyridin-4-yl)-N-(4-sulfamoylphenyl) benzamide], the IC50 was determined as 1.8 nM. In the case of `O=C(NC12CCC(O)(CC1)CC2)c1ccc(-c2nccc3occc23)cc1` [Example 260, 4-(furo[3,2-c]pyridin-4-yl)-N-(4-hydroxybicyclo[2.2.2]octan-1-yl)benzamide] it was 1.9 nM.

Take `O=C(NCC1CCOC1)c1ccc(-c2nccc3occc23)cc1` (stereo not drawn) [Example 81, 4-(furo[3,2-c]pyridin-4-yl)-N-[(tetrahydrofuran-3-yl)methyl] benzamide]: the IC50 stood at 11 nM. For `NC(=O)c1cnc(N2CCC(NC(=O)c3ccc(-c4nccc5occc45)cc3)CC2)nc1` [Example 174, 2-{4-[4-(furo[3,2-c]pyridin-4-yl)benzamide]piperidin-1-yl}pyrimidine-5-carboxamide], the IC50 stood at 1.1 nM.

For `O=C(NCc1cc[nH]n1)c1ccc(-c2nccc3[nH]ccc23)cc1` [Example 54, N-[(1H-pyrazol-3-yl)methyl]-4-(1H-pyrrolo[3,2-c]pyridin-4-yl)benzamide], the IC50 stood at 1.2 nM. In the case of `O=C(NC1CCN(c2cccc(=O)[nH]2)CC1)c1ccc(-c2nccc3occc23)cc1` [Example 172, 4-(furo[3,2-c]pyridin-4-yl)-N-[1-(6-oxo-1,6-dihydropyridin-2-yl)piperidin-4-yl]benzamide], the half-maximal inhibitory concentration (IC50) was determined as 2.6 nM. Consider `CC(C)n1nnnc1N1CCC(NC(=O)c2ccc(-c3nccc4occc34)cc2)CC1` [Example 242, 4-(furo[3,2-c]pyridin-4-yl)-N-[1-(1-isopropyl-1H-tetrazol-5-yl)piperidin-4-yl]benzamide], for which the IC50 amounted to 2 nM. Turning to `O=C(NCC1CCCCC1)c1ccc(-c2nccc3occc23)cc1` [Example 85, N-(cyclohexyl-methyl)-4-(furo[3,2-c]pyridin-4-yl)benzamide], the IC50 was found to be 32 nM. With `CC(C)(O)[C@H]1CC[C@H](NC(=O)c2ccc(-c3nc(C(N)=O)cc4occc34)cc2)CC1` [Example 318, 4-(4-{[trans-4-(2-hydroxypropan-2-yl)cyclohexyl]carbamoyl}phenyl)furo[3,2-c]pyridine-6-carboxamide], the IC50 was found to be 367 nM. As for `O=C(NC1CCCCC1)c1ccc(-c2nccc3occc23)cc1` [Example 88, N-cyclohexyl-4-(furo[3,2-c]pyridin-4-yl)benzamide], the IC50 came out at 4.2 nM. On to `O=C(NC1CCCC1)c1ccc(-c2nccc3[nH]ccc23)cc1` [Example 12, N-cyclopenthyl-4-(1H-pyrrolo[3,2-c]pyridin-4-yl)benzamide], for which the IC50 stood at 1.1 nM. Turning to `O=C(N[C@H]1CC[C@H](N2CCOCC2)CC1)c1ccc(-c2nccc3occc23)cc1` [Example 305, 4-(furo[3,2-c]pyridin-4-yl)-N-(trans-4-morpholinocyclohexyl)benzamide], the IC50 turned out to be 55 nM.

Regarding `CC(C)(O)[C@H]1CC[C@H](NC(=O)c2ccc(-c3nccc4sccc34)cc2)CC1` [Example 63, N-[trans-4-(2-hydroxypropan-2-yl)cyclohexyl]-4-(thieno[3,2-c]pyridin-4-yl)benzamide], the IC50 worked out at 1.5 nM. In the case of `O=C(NC1CCC1)c1ccc(-c2nccc3[nH]ccc23)cc1` [Example 13, N-cyclobutyl-4-(1H-pyrrolo[3,2-c]pyridin-4-yl)benzamide] it was 0.58 nM. Next, `O=C(N[C@H]1CC[C@H](C(F)F)CC1)c1ccc(-c2nccc3occc23)cc1` [Example 310, N-[trans-4-(difluoromethyl)cyclohexyl]-4-(furo[3,2-c]pyridin-4-yl)benzamide]: 2.6 nM; `CC(C)(O)[C@@H]1CC[C@@H](NC(=O)c2ccc(-c3nccc4occc34)cc2)CO1` [Example 214, 4-(furo[3,2-c]pyridin-4-yl)-N-[(3R,6S)-6-(2-hydroxypropan-2-yl)tetrahydro-2 H-pyran-3-yl]benzamide]: 3.4 nM; `Cn1ccc2c(-c3ccc(C(=O)N[C@H]4CC[C@H](C(C)(C)O)CC4)cc3)nccc21` [Example 4, N-[trans-4-(2-hydroxypropan-2-yl)cyclohexyl]-4-(1-methyl-1H-pyrrolo[3,2-c]pyridin-4-yl)benzamide]: 7.4 nM. In the case of `O=C(N[C@@H]1CCC[C@@H](O)C1)c1ccc(-c2nccc3occc23)cc1` (relative stereo) [Example 266, 4-(furo[3,2-c]pyridin-4-yl)-N-(trans-3-hydroxycyclohexyl)benzamide] it was 3.8 nM. Regarding `CCn1nnnc1N1CC[C@H](NC(=O)c2ccc(-c3nccc4occc34)cc2)C1` [Example 232, (S)-4-(furo[3,2-c]pyridin-4-yl)-N-[1-(1-ethyl-1H-tetrazol-5-yl)pyrrolidin-3-yl]benzamide], the concentration for half-maximal inhibition (IC50) is 2 nM.

Regarding `CCCCCCNC(=O)c1ccc(-c2nccc3occc23)cc1` [Example 76, 4-(furo[3,2-c]pyridin-4-yl)-N-hexylbenzamide], the IC50 turned out to be 13 nM. On to `Cn1cc(Br)c(CNC(=O)c2ccc(-c3nccc4[nH]ccc34)cc2)n1` [Example 50, N-[(4-bromo-1-methyl-1H-pyrazol-3-yl)methyl]-4-(1H-pyrrolo[3,2-c]pyridin-4-yl)benzamide], for which the IC50 turned out to be 1.4 nM. Take `O=C(NC(CO)c1ccccn1)c1ccc(-c2nccc3occc23)cc1` (stereo not drawn) [Example 220, 4-(furo[3,2-c]pyridin-4-yl)-N-[2-hydroxy-1-(pyridin-2-yl)ethyl]benzamide]: the IC50 came to 68 nM. In the case of `O=C(NC1CC1)c1ccc(-c2nccc3[nH]ccc23)cc1` [Example 14, N-cyclopropyl-4-(1H-pyrrolo [3,2-c]pyridin-4-yl)benzamide] it was 1.4 nM; in that of `O=C(N[C@H]1CCN(c2ccc(Cl)nn2)C1)c1ccc(-c2nccc3occc23)cc1` [Example 228, (S)—N-[1-(6-chloropyridazin-3-yl)pyrrolidin-3-yl]-4-(furo[3,2-c]pyridin-4-yl)benzamide], 1.9 nM. On to `Cc1cc2occc2c(-c2ccc(C(=O)N[C@H]3CC[C@H](O)CC3)cc2)n1` [Example 333, N-(trans-4-hydroxycyclohexyl)-4-(6-methylfuro[3,2-c]pyridin-4-yl)benzamide], for which the IC50 was found to be 2.3 nM. As to `O=C(N[C@H]1CCN(c2ccc(CO)cn2)C1)c1ccc(-c2nccc3occc23)cc1` [Example 197, (S)-4-(furo[3,2-c]pyridin-4-yl)-N-{1-[5-(hydroxymethyl)pyridin-2-yl]pyrrolidin-3-yl}benzamide], the IC50 was determined as 6.1 nM. Regarding `O=C(Nc1ccncc1)c1ccc(-c2nccc3occc23)cc1` [Example 108, 4-(furo[3,2-c]pyridin-4-yl)-N-(pyridin-4-yl)benzamide], the IC50 is 5 nM. Consider `O=C(NC1CCC2(CC1)COC2)c1ccc(-c2nccc3occc23)cc1` [Example 284, 4-(furo[3,2-c]pyridin-4-yl)-N-(2-oxaspiro[3.5]nonan-7-yl)benzamide], for which the IC50 came to 1.7 nM. Turning to `CC(=O)[C@@H]1CC[C@@H](NC(=O)c2ccc(-c3nccc4occc34)cc2)CO1` [Example 213, N-[(3R,6S)-6-acetyltetrahydro-2 H-pyran-3-yl]-4-(furo[3,2-c]pyridin-4-yl)benzamide], the IC50 turned out to be 4.3 nM. For the molecule `CC(C)(O)[C@]1(O)CC[C@@H](NC(=O)c2ccc(-c3nccc4occc34)cc2)CC1` [Example 350, 4-(furo[3,2-c]pyridin-4-yl)-N-[cis-4-hydroxy-4-(2-hydroxypropan-2-yl)cyclohexyl]benzamide], the IC50 came to 27 nM. In the case of `O=C(NC1CCN(c2cccc3nccn23)CC1)c1ccc(-c2nccc3occc23)cc1` [Example 238, 4-(furo[3,2-c]pyridin-4-yl)-N-[1-(imidazo[1,2-a]pyridin-5-yl)piperidin-4-yl]benzamide] it was 3.6 nM; in that of `O=C(NC1CCCC1)c1ccc(-c2nccc3occc23)cc1` [Example 87, N-cyclopenthyl-4-(furo[3,2-c]pyridin-4-yl)benzamide], 12 nM. Next, `O=C(NC1CCN(c2ccncc2)CC1)c1ccc(-c2nccc3occc23)cc1` [Example 123, 4-(furo[3,2-c]pyridin-4-yl)-N-[1-(pyridin-4-yl)piperidin-4-yl]benzamide]: 1.8 nM; `O=C(N[C@H]1CCN(c2ncc(F)cn2)C1)c1ccc(-c2nccc3occc23)cc1` [Example 194, (S)-N-[1-(5-fluoropyrimidin-2-yl)pyrrolidin-3-yl]-4-(furo[3,2-c]pyridin-4-yl)benzamide]: 0.94 nM. As for `O=C(NCC1CCOC1)c1ccc(-c2nccc3[nH]ccc23)cc1` (stereo not drawn) [Example 21, 4-(1H-pyrrolo[3,2-c]pyridin-4-yl)-N-[(tetrahydrofuran-3-yl)methyl] benzamide], the IC50 was found to be 0.82 nM.
